According to patent US20250090441A1, “ANTI-CARIES PEPTIDES WITH ANTIMICROBIAL AND REMINERALIZING PROPERTIES AND METHODS THEREOF” (THE UNIVERSITY OF HONG KONG, priority 2023, published 2025):
Converted amounts (≈) assume the structure as drawn. Where a SMILES comes first, the peptide text is derived from it.

Assays:
[1] = Remineralizing effects on enamel, chemical pH cycling model (SEM-EDS, Micro-CT, XRD); parameters: species or system human; conditions: 160 μM twice daily, pH cycling 8 days, n = 8
Procedure: Ten enamel slices were cut from extracted sound human molars. Each slice was separated into four blocks. A total of 40 enamel blocks were prepared. Then the surface of the enamel block was half-covered by an acid-resistant varnish. The exposed half was the experimental surface, and the varnished half was the internal control. Before use, all the enamel blocks were sterilized via autoclave (Niu et al. 2021d; Yu et al. 2018).
The pH-cycling procedure (16 h-demineralization at pH 4.5 and 8 h-remineralization at pH 7.0) was performed to enamel blocks for 8 days. The formula for demineralizing/remineralizing solution was employed from a previous study (Yu et al. 2018). The enamel blocks from the same enamel slice were treated twice daily with 160 μM GAPI (GAPI Group), 160 μM gallic acid (GA Group), 160 μM polyphemusin-I (PI Group), and sterile deionized water (Water Group). All enamel blocks after pH cycling were involved in sequent assessments.
The structure of the enamel surface was examined using SEM (n=8 per group) (Niu et al. 2021d). The elemental analysis of enamel surface was conducted using affiliated energy-dispersive X-ray spectroscopy (EDS). The calcium to phosphorus molar ratio was calculated (Niu et al. 2022). The mineral loss and lesion depth on the enamel blocks were assessed using microcomputed tomography (Micro-CT) (1076, SkyScan, Antwerp, Belgium) (n=8 per group) (Niu et al. 2022). The diffraction patterns of the enamel blocks were evaluated using X-ray diffraction analysis (XRD) (Rigaku SmartLab 9 kW, […]) (n=2 per group) (Yu et al. 2018).

[2] = system: Lacticaseibacillus casei in multiple-species cariogenic biofilm; assay: Multiple-species cariogenic biofilm, PMA-qPCR; format: cell-based; conditions: three-species biofilm treated with GAPI, n=6 per group
Procedure: (§1) A multiple-species cariogenic biofilm consisting of Streptococcus mutans, Lacticaseibacillus casei and Candida albicans was cultured to assess the anti-biofilm properties of GAPI. The culture medium was modified-artificial saliva as described in a previous protocol (Yassin et al. 2016). The biofilm was cultured on glass slides in 24-well plates with 1×10^7 Streptococcus mutans, 1×10^7 Lacticaseibacillus casei and 1×10^5 Candida albicans for 48 h. The biofilm was then treated with GAPI. The biofilm with no treatment was the negative control. After another 48-h incubation, the biofilm was collected for sequent assessments. The architecture of the multiple-species biofilm was assessed using scanning electron microscopy (SEM) and confocal laser scanning microscopy (CLSM). The sample was prepared with our published protocol (Niu et al. 2021d). The growth kinetics of the multiple-species biofilm were analyzed using propidium monoazide-quantitative polymerase chain reaction (PMA-qPCR) (Loozen et al. 2011). Biofilm was suspended in phosphate-buffered solution. The suspension was treated with propidium monoazide (PMA) (Biotium, San Francisco, USA) and exposed to halogen light photoactivation (PMA-Lite™, Biotium, San Francisco, USA). The brightness (luminosity) of the light device is 600-800 millicandela and its wavelength is 465-475 nm. Then deoxyribonucleic acid (DNA) was extracted from PMA-treated biofilm suspension using QIAamp DNA Mini Kit (QIAGEN, Dusseldorf, Germany). The oligonucleotide primers and TaqMan probes were used to quantify multiple-species cariogenic biofilm species: SMUT-forward(F), SMUT-reverse(R) and SMUT-probe(P) for Streptococcus mutans, Lc-F, Lc-R, Lc-P for Lactobacillus casei and Ca—F, Ca—R and Ca-P for Candida albicans […]. […]
(§2) Biofilm was suspended in phosphate-buffered solution. […] The oligonucleotide primers and TaqMan probes were used to quantify multiple-species cariogenic biofilm species: SMUT-forward(F), SMUT-reverse(R) and SMUT-probe(P) for Streptococcus mutans, Lc-F, Lc-R, Lc-P for Lactobacillus casei and Ca—F, Ca—R and Ca-P for Candida albicans (Table 3). […]

[3] = system: Streptococcus mutans in multiple-species cariogenic biofilm; assay: Multiple-species cariogenic biofilm, PMA-qPCR; format: cell-based; conditions: three-species biofilm treated with GAPI, n=6 per group
Procedure: as §1, §2

[4] = system: Candida albicans in multiple-species cariogenic biofilm; assay: Multiple-species cariogenic biofilm, PMA-qPCR; format: cell-based; conditions: three-species biofilm treated with GAPI, n=6 per group
Procedure: as §1, §2

[5] = system: Candida albicans, ATCC 90028; format: cell-based
Procedure: The antimicrobial properties of synthesized peptides against bacteria and fungi were evaluated using minimum inhibitory concentration (MIC) and minimum bactericidal/fungicidal concentration (MBC/MFC) tests (Wiegand et al. 2008). The tested species include Streptococcus mutans, UA159; Lacticaseibacillus casei, American Type Culture Collection (ATCC) 334; and Candida albicans, ATCC 90028. A 10 μL aliquot of bacterial culture (10^6 CFU/mL) in brain heart infusion (BHI) broth was added to 100 μL serial two-fold dilutions of experimental solutions. The optical density values at 660 nm were measured after 18 h of incubation. To determine the MBC, 10 μL of bacterial culture was taken from the well of MIC, and wells before and after the well of MIC, and transferred to blood agar. The test protocol for fungi was similar: the culture medium was a Roswell Park Memorial Institute (RPMI) 1640 Medium, the absorbance was measured at 520 nm, and Sabouraud dextrose agar was used for the MFC test. Chlorhexidine and medium were used as the positive and negative controls.

For `CC(C)[C@@H]1NC(=O)[C@H](CCCN=C(N)N)NC(=O)[C@H](Cc2ccccc2)NC(=O)[C@@H](NC(=O)[C@H](Cc2c[nH]c3ccccc23)NC(=O)[C@H](CCCN=C(N)N)NC(=O)[C@H](CCCN=C(N)N)NC(=O)c2cc(O)c(O)c(O)c2)CSSC[C@@H](C(=O)N[C@@H](CCCN=C(N)N)C(=O)O)NC(=O)[C@H](CCCCN)NC(=O)[C@H](CCCN=C(N)N)NC(=O)[C@H](Cc2ccc(O)cc2)NC(=O)[C@@H]2CSSC[C@H](NC1=O)C(=O)N[C@@H](Cc1ccc(O)cc1)C(=O)N[C@@H](CCCN=C(N)N)C(=O)NCC(=O)N[C@@H](Cc1ccccc1)C(=O)N2` [GAPI, Gallic-Acid-Polyphemusin-I] (HELM PEPTIDE1{[O=C(c1cc(O)c(O)c(O)c1)[*:2]].R.R.W.C.F.R.V.C.Y.R.G.F.C.Y.R.K.C.R}$PEPTIDE1,PEPTIDE1,5:R3-18:R3|PEPTIDE1,PEPTIDE1,9:R3-14:R3$$$V2.0), the “Calcium to phosphate molar ratio” value ([1]; EDS) was 1.81 ± 0.05, the Lesion depth ([1]; Micro-CT) was 64 ± 7 μm and the Mineral loss ([1]; Micro-CT) was 0.89 ± 0.20 gHApcm^−3. For the same compound, the “log 10 cell counts of Lacticaseibacillus casei” value [2] was 7.33±0.38, the “log 10 cell counts of Streptococcus mutans” value [3] was 6.05±0.37 and the “log 10 cell counts of Candida albicans” value [4] was 6.63±0.55. The minimum inhibitory concentration [5] was 80 µM (≈ 209 µg/mL), the MBC/MFC ([5]; μM) was 40 and the MIC ([5]; μM) was 20.
